Reference: patent US12622915B2, “Methods of treating PDE IV-mediated diseases or conditions” (Vanda Pharmaceuticals Inc., priority 2020, dated 2026)

What was measured:
Format in all cases: biochemical
[1] = biological target: T1, Phosphodiesterase PDE4D2 (Homo sapiens, UniProt Q08499); assay: Phosphodiesterase PDE4D2 enzyme assay
T1 construct: host or cells: insect Sf9 cells
Method: Roliprami is used as a reference standard.
PDE4 assays are performed using methods adapted from the literature. See Houslay MD (2005) The long and short of vascular smooth muscle phosphodiesterase-4 as a putative therapeutic target. Mol Pharmacol. 68(3):563-567; MacKenzie S J and Houslay M D (2000) Action of rolipram on specific PDE4 cAMP phosphodiesterase isoforms and on the phosphorylation of cAMP-response element-binding protein (CREB) and p38 mitogen-activated protein (MAP) kinase in U937 monocytic cells. Biochem J. 347(Pt 2): 571-578.
Phosphodiesterase PDE4D2: • Source: Human recombinant insect Sf9 cells • Substrate: 0.10 μM FAM-cAMP • Vehicle: 1.00% DMSO • Significance Crit.: ≥50% of max stimulation or inhibition • Incubation Buffer: 10 mM Tris-HCl, pH 7.2, 10 mM MgCl2, 0.05% NaN3, 0.1% phosphate-free BSA • Quantitation Method: Quantitation of Fluorescein-AMP-IMAP • Pre-Incub. Time/Temp: 15 minutes @25° C. • Incubation Time/Temp: 15 minutes @25° C.
IC50 values are determined by a non-linear, least squares regression analysis using MathIQ™ (ID Business Solutions Ltd., UK). Where inhibition constants (Ki) are presented, the Ki values are calculated using the equation of Cheng and Prusoff (Cheng, Y., Prusoff, W.H., Biochem. Pharmacol. 22:3099-3108, 1973) using the observed IC50 of the tested compound, the concentration of radioligand employed in the assay, and the historical values for the KD of the ligand (obtained experimentally at Eurofins Panlabs, Inc.). Where presented, the Hill coefficient (nH), defining the slope of the competitive binding curve, is calculated using MathIQ™. […] Where IC50, Ki, and/or nH data are presented without Standard Error of the Mean (SEM), data are insufficient to be quantitative, and the values presented (Ki, IC50, nH) are interpreted with caution.

[2] = biological target: T2, Phosphodiesterase PDE7B (Homo sapiens, UniProt Q9NP56); assay: Phosphodiesterase PDE7B enzyme assay; conditions: N=2, Example 3
T2 construct: host or cells: insect Sf9 cells
Text: (§1) Reference standards are run as an integral part of each assay to ensure the validity of the results obtained. Reference Compounds: • Phosphodiesterase PDE10A2 Papaverine • Phosphodiesterase PDE11A4 Dipyridamole • Phosphodiesterase PDE1A MMPX • Phosphodiesterase PDE2A EHNA • Phosphodiesterase PDE3A Cilostamide • Phosphodiesterase PDE4A1A Rolipram • Phosphodiesterase PDE4B1 Rolipram • Phosphodiesterase PDE5A Zaprinast • Phosphodiesterase PDE6 Zaprinast • Phosphodiesterase PDE7A IBMX • Phosphodiesterase PDE7B IBMX • Phosphodiesterase PDE8A1 Dipyridamole • Phosphodiesterase PDE9A2 Zaprinast
(§2) Phosphodiesterase PDE4A1A; Phosphodiesterase PDE4B1; Phosphodiesterase PDE10A2; Phosphodiesterase PDE11A4; Phosphodiesterase PDE2A; Phosphodiesterase PDE3A; Phosphodiesterase PDE7A; Phosphodiesterase PDE7B; and Phosphodiesterase PDE8A1: • Source: Human recombinant insect Sf9 cells • Substrate: 0.10 μM FAM-cAMP • Vehicle: 1.00% DMSO • Significance Crit.: ≥50% of max stimulation or inhibition • Incubation Buffer: 10 mM Tris-HCl, pH 7.2, 10 mM MgCl2, 0.05% NaN3, 0.1% phosphate-free BSA • Quantitation Method: Quantitation of Fluorescein-AMP-IMAP • Pre-Incub. Time/Temp: 15 minutes @25° C. • Incubation Time/Temp: 30 minutes @25° C.
(§3) IC50 values are determined by a non-linear, least squares regression analysis using MathIQ™ (ID Business Solutions Ltd., UK). […]

[3] = biological target: T3, Phosphodiesterase PDE5A (Homo sapiens, UniProt O76074); assay: Phosphodiesterase PDE5A enzyme assay; conditions: N=2, Example 3
T3 construct: host or cells: insect Sf9 cells
Text: as §1
Phosphodiesterase PDE1A; Phosphodiesterase PDE5A; and Phosphodiesterase PDE9A2: • Source: Human recombinant insect Sf9 cells • Substrate: 0.10 μM […] • Vehicle: 1.00% DMSO • Significance Crit.: ≥50% of max stimulation or inhibition • Incubation Buffer: 10 mM Tris-HCl, pH 7.2, 10 mM MgCl2, 0.05% NaN3, 0.1% phosphate-free BSA • Quantitation Method: Quantitation of Fluorescein-GMP-IMAP • Pre-Incub. Time/Temp: 15 minutes @25° C. • Incubation Time/Temp: 30 minutes @25° C.
IC50 values are determined by a non-linear, least squares regression analysis using MathIQ™ (ID Business Solutions Ltd., UK). […] Where presented, the Hill coefficient (nH), defining the slope of the competitive binding curve, is calculated using MathIQ™. […]

[4] = biological target: T4, Phosphodiesterase PDE10A2 (Homo sapiens, UniProt Q9Y233); assay: Phosphodiesterase PDE10A2 enzyme assay; conditions: N=2, Example 3
T4 construct: host or cells: insect Sf9 cells
Text: as §1, §2, §3

T1 sequence (Q08499 303-809 limits assumed): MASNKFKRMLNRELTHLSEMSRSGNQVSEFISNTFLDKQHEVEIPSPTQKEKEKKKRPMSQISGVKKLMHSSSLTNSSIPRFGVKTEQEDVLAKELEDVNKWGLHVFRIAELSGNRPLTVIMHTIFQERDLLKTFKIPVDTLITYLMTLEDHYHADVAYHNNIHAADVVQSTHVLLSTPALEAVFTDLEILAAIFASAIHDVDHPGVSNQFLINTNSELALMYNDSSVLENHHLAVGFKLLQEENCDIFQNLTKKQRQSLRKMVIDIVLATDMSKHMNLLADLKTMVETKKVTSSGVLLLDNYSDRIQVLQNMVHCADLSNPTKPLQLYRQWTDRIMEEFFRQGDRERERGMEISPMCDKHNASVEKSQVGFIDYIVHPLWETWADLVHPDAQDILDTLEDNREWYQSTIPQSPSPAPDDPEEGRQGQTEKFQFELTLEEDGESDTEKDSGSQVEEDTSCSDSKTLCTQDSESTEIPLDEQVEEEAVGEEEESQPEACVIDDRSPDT
T4 sequence (Q9Y233 267-1055): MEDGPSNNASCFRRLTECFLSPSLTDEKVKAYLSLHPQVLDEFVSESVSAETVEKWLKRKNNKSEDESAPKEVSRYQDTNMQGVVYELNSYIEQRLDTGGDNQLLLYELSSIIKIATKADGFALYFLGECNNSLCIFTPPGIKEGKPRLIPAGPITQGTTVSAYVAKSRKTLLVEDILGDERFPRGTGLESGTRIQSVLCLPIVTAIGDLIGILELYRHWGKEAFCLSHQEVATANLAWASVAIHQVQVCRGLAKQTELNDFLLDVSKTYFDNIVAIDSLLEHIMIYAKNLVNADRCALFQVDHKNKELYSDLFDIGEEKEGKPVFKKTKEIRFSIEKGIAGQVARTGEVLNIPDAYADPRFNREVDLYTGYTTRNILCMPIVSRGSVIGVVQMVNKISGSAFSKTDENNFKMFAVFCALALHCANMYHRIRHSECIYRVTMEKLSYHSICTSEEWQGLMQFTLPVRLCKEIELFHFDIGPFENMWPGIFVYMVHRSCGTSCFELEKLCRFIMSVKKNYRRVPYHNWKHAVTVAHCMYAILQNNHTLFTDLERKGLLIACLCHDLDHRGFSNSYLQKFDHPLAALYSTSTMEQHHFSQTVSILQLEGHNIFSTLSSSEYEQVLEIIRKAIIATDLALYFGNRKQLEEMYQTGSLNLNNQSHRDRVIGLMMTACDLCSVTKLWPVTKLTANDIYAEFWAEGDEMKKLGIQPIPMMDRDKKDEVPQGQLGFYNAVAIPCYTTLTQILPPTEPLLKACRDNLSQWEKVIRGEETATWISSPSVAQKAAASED
T2 sequence (Q9NP56 whole entry): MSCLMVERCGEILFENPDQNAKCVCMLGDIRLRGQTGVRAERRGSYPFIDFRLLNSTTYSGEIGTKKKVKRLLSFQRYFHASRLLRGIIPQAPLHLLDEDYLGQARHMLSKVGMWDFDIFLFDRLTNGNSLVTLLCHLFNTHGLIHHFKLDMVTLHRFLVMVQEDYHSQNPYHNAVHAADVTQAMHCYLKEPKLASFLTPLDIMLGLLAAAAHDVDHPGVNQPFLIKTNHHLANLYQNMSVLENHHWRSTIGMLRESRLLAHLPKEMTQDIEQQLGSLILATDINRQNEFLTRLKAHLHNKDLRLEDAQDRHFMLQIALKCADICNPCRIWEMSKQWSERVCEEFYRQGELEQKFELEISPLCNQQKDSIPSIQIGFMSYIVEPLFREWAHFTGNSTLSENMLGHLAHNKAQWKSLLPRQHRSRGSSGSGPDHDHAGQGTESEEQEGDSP

`CNc1nc(Nc2ccccc2)nc(OCC(F)(F)C(F)F)n1` [compound of Formula (I), N^2-methyl-N^4-phenyl-6-(2,2,3,3-tetrafluoropropoxy)-1,3,5-triazine-2,4-diamine] was tested, and the inhibition at 0.03 µM ([1]; 0.03 μM, N=2, Example 5) was 70%, the inhibition at 0.1 µM ([1]; 0.1 μM, N=2, Example 5) was 83% and the inhibition at 0.3 µM ([1]; 0.3 μM, N=2, Example 5) was 91%. For the same compound, the inhibition at 1 µM ([1]; 1 μM, N=2, Example 5) was 96%, the inhibition at 3 µM ([1]; 3 μM, N=2, Example 5) was 97% and the inhibition at 10 µM ([1]; 10 μM (first line, r2), N=2, Example 5) was 99%. For the same compound, the IC50 ([1]; Example 5) was 6.19 nM, the inhibition at 10 µM [2] was -1% and the inhibition at 10 µM [3] was 27%. It also gave an inhibition at 10 µM [4] of 11%.
